Laboratory results from patent US12415832B2, “B-catenin/B-cell Lymphoma 9 protein-protein interaction inhibiting peptidomimetics” (University of South Florida, priority 2019, dated 2025).

Experiments:
β-catenin = target: T1, β-catenin (Homo sapiens, UniProt P35222); experiment: FP assay, binding of peptides with β-catenin (Kd); details: for Kd: fluorescence polarization, 50 nM FITC labeled peptide, 1×PBS
T1 sequence (P35222 1-781): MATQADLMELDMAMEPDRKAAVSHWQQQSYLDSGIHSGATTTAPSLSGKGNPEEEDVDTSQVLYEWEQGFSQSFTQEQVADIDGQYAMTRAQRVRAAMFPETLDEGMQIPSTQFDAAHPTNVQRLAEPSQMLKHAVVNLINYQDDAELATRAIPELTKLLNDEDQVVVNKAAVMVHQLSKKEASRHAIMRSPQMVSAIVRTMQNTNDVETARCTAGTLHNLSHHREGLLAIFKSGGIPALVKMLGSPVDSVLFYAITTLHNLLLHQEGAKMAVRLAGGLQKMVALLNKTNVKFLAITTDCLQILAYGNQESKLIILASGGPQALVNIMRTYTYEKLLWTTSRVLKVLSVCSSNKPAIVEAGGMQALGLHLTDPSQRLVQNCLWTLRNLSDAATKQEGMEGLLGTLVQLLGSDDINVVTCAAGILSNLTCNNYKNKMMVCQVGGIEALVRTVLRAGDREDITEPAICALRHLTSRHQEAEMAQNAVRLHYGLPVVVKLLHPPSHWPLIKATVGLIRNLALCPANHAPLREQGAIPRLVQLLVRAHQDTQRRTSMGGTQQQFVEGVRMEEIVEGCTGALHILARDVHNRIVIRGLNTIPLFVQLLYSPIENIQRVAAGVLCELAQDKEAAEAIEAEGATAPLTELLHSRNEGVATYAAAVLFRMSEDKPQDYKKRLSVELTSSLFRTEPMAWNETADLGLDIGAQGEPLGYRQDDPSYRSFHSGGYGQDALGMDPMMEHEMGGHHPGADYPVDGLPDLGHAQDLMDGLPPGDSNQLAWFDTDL

β-catenin/BCL9 PPI = target: T2, β-catenin/BCL9 PPI (Homo sapiens, UniProt P35222); experiment: AlphaScreen competitive inhibition assay of β-catenin/BCL9 PPI; format: binding; details: for IC50 / Ki: AlphaScreen, mean ± SD; for IC50: 5 nM biotinylated BCL9, 40 nM His6-tagged FL-β-catenin; for Ki: Ki derived from IC50 by method of Nikolovska-Coleska et al.
T2 construct: 40 nM His6-tagged FL-β-catenin
T2 sequence (P35222 1-781): T1 sequence (P35222 1-781)
Procedure: For the competitive inhibition assays of β-catenin/BCL9 PPI, the negative control (equivalent to 0% inhibition) refers to 5.0 nM biotinylated BCL9, 40 nM His6-tagged FL-β-catenin, and 10 μg/mL of donor and acceptor beads in a final volume of 25 μL of assay buffer, but no tested inhibitor present. The positive control (equivalent to 100% inhibition) refers to 5.0 nM biotinylated BCL9 and 10 μg/mL of donor and acceptor beads in a final volume of 25 μL of assay buffer. For the β-catenin/BCL9 assay, 5 nM biotinylated BCL9 and 40 nM His6-tagged FL-β-catenin were incubated in assay buffer at 4° C. for 30 min. Different concentrations of the tested inhibitor were added and incubated in 20 μL of assay buffer at 4° C. for another 1 h. All of the above assay plates were covered and gently mixed on an orbital shaker. The donor and acceptor beads were then added to the plates to a final concentration of 10 μg/mL in 25 μL of assay buffer. The mixture was incubated for 1 h at 4° C. before detection. The IC50 value was determined by nonlinear least-squares analysis of GraphPad Prism 5.0. The Ki values were derived from the IC50 values using a method reported by Nikolovska-Coleska et al. The assays were conducted under the conditions reported by Nikolovska-Coleska et al.'s equation for determining the Ki values. All of the experiments were performed in triplicate. The results were expressed as mean±standard deviation.

SW480 cell = format: cell-based; details: for IC50: 72 h
Procedure: Colorectal cancer cell lines SW480 were seeded in 96-well plates at 5×10^3 cells/well, maintained overnight at 37° C., and incubated in the presence of inhibitors at various concentrations. Cell viability was monitored after 72 h using a freshly prepared mixture of one-part phenazine methosulfate (PMS, Sigma) solution (0.92 mg/mL) and 19 parts MTs agent (3-(4,5-dimethylthiazol-2-yl)-5-(3-carboxymethoxyphenyl)-2-(4-sulfophenyl)-2H-tetrazolium, inner salt, Promega) solution (2 mg/mL). Cells were incubated in 10 μL of this solution at 37° C. for 3 h, and A490 was measured. The effect of each compound is expressed as the concentration required to reduce A490 by 50% (IC50) relative to vehicle-treated cells. Experiments were performed in triplicate and repeated for three times.

A549 cell = format: cell-based; details: 72 h
[1] = tested on: Wnt/β-catenin signaling transactivation (TOPFlash); experiment: Wnt-responsive TOPFlash luciferase reporter assay in SW480 cells; details: read-out: TOPFlash luciferase IC50 (estimated), 24 h

Compound	Kd (β-catenin)	IC50 (β-catenin/BCL9 PPI)	Ki (β-catenin/BCL9 PPI)	IC50 (SW480 cell)	IC50 (A549 cell)	IC50 [1]	improvement of Kd compared to the peptide 1 (β-catenin)	improvement of IC50 compared to the peptide 1 (β-catenin/BCL9 PPI)	improvement of Ki compared to the peptide 1 (β-catenin/BCL9 PPI)	decrease in binding affinity relative to 2 (β-catenin; Ala substitution)	binding activity, in words (β-catenin)	effect on SW480 cell proliferation, in words (SW480 cell; MTS)	ability to inhibit β-catenin/BCL9 PPI, in words (β-catenin/BCL9 PPI)
CCC(C)[C@@H](CN(CC(=O)N[C@@H](CC(C)C)CN(CC(=O)N[C@@H](CC(C)C)CN(CC(N)=O)S(=O)(=O)Cc1ccccc1)S(=O)(=O)CC(C)C)S(C)(=O)=O)NC(=O)CN(C[C@H](CCCNC(=N)N)NC(=O)CN(C[C@H](CC(C)C)NC(=O)CN(C[C@@H](NC(=O)CN(C[C@H](CC(C)C)NC(=O)CN(C[C@H](CCCNC(=N)N)NC(=O)CN(C[C@H](CCCNC(=N)N)NC(=O)CN(C[C@H](CCC(=O)O)NC(C)=O)S(=O)(=O)CCN)S(C)(=O)=O)S(C)(=O)=O)S(=O)(=O)CCN)C(C)O)S(=O)(=O)CC(C)C)S(=O)(=O)CCN)S(=O)(=O)CC(C)C (stereo partly shown) [Peptide 2]	430 nM	0.74 µM	0.64 µM	12.5 ± 2.86 µM	39.9 ± 4.75 µM	35.4 µM	–	–	–	–	–	–	–
CCC(C)[C@@H](CN(CC(=O)N[C@@H](CC(C)C)CN(CC(=O)N[C@@H](CC(C)C)CN(CC(N)=O)S(=O)(=O)Cc1ccccc1)S(=O)(=O)CC(C)C)S(C)(=O)=O)NC(=O)CN(C[C@H](CCCNC(=N)N)NC(=O)CN(C[C@H](C)NC(=O)CN(C[C@@H](NC(=O)CN(C[C@H](CC(C)C)NC(=O)CN(C[C@H](CCCNC(=N)N)NC(=O)CN(C[C@H](CCCNC(=N)N)NC(=O)CN(C[C@H](CCC(=O)O)NC(C)=O)S(=O)(=O)CCN)S(C)(=O)=O)S(C)(=O)=O)S(=O)(=O)CCN)C(C)O)S(=O)(=O)CC(C)C)S(=O)(=O)CCN)S(=O)(=O)CC(C)C (stereo partly shown) [Peptide 5]	1970 nM	2.71 µM	2.43 µM	132 ± 18.9 µM	230 ± 27.5 µM	–	–	–	–	–	–	–	–
CC(=O)N[C@@H](CCC(=O)O)CN(CC(=O)N[C@@H](CCCNC(=N)N)CN(CC(=O)N[C@@H](CCCNC(=N)N)CN(CC(=O)N[C@@H](CC(C)C)CN(CC(=O)N[C@H](CN(CC(=O)N[C@@H](CC(C)C)CN(CC(=O)N[C@@H](CCCNC(=N)N)CN(CC(=O)N[C@@H](C)CN(CC(=O)N[C@@H](CC(C)C)CN(CC(=O)N[C@@H](CC(C)C)CN(CC(N)=O)S(=O)(=O)Cc1ccccc1)S(=O)(=O)CC(C)C)S(C)(=O)=O)S(=O)(=O)CC(C)C)S(=O)(=O)CCN)S(=O)(=O)CC(C)C)C(C)O)S(=O)(=O)CCN)S(C)(=O)=O)S(C)(=O)=O)S(=O)(=O)CCN (stereo partly shown) [Peptide 6]	160 nM	0.54 µM	0.46 µM	65.4 ± 7.06 µM	150 ± 19.2 µM	–	~6 fold	~3 fold	~3 fold	–	–	relatively weak activity	–
CCC(C)[C@@H](CN(CC(=O)N[C@@H](CC(C)C)CN(CC(=O)N[C@@H](C)CN(CC(N)=O)S(=O)(=O)Cc1ccccc1)S(=O)(=O)CC(C)C)S(C)(=O)=O)NC(=O)CN(C[C@H](CCCNC(=N)N)NC(=O)CN(C[C@H](CC(C)C)NC(=O)CN(C[C@@H](NC(=O)CN(C[C@H](CC(C)C)NC(=O)CN(C[C@H](CCCNC(=N)N)NC(=O)CN(C[C@H](CCCNC(=N)N)NC(=O)CN(C[C@H](CCC(=O)O)NC(C)=O)S(=O)(=O)CCN)S(C)(=O)=O)S(C)(=O)=O)S(=O)(=O)CCN)C(C)O)S(=O)(=O)CC(C)C)S(=O)(=O)CCN)S(=O)(=O)CC(C)C (stereo partly shown) [Peptide 7]	700 nM	1 ± 0.1 µM	0.89 ± 0.08 µM	46.6 ± 5.57 µM	120 ± 13.6 µM	–	–	–	–	about 1.5 fold	–	–	–
CCC(C)[C@@H](CN(CC(=O)N[C@@H](CC(C)C)CN(CC(=O)N[C@@H](CC(C)C)CN(CC(N)=O)S(=O)(=O)Cc1ccccc1)S(=O)(=O)CC(C)C)S(C)(=O)=O)NC(=O)CN(C[C@H](CCCNC(=N)N)NC(=O)CN(C[C@H](CC(C)C)NC(=O)CN(C[C@@H](NC(=O)CN(C[C@H](CC(C)C)NC(=O)CN(C[C@H](CCCNC(=N)N)NC(=O)CN(C[C@H](CCCNC(=N)N)NC(=O)CN(C[C@H](CCC(=O)O)NC(C)=O)S(=O)(=O)CCN)S(C)(=O)=O)S(C)(=O)=O)S(=O)(=O)CCN)C(C)O)S(=O)(=O)CC(C)C)S(=O)(=O)CCN)S(C)(=O)=O (stereo partly shown) [Peptide 8]	3890 nM	8.01 ± 0.82 µM	7.2 ± 0.72 µM	–	–	–	–	–	–	–	inferior binding activity	–	–

Continued, in another order:

Kd (β-catenin)	IC50 (β-catenin/BCL9 PPI)	Ki (β-catenin/BCL9 PPI)	IC50 (SW480 cell)	IC50 (A549 cell)	IC50 [1]	improvement of Kd compared to the peptide 1 (β-catenin)	improvement of IC50 compared to the peptide 1 (β-catenin/BCL9 PPI)	improvement of Ki compared to the peptide 1 (β-catenin/BCL9 PPI)	decrease in binding affinity relative to 2 (β-catenin; Ala substitution)	binding activity, in words (β-catenin)	Compound	effect on SW480 cell proliferation, in words (SW480 cell; MTS)	ability to inhibit β-catenin/BCL9 PPI, in words (β-catenin/BCL9 PPI)
5140 nM	12.9 ± 2.15 µM	11.6 ± 1.92 µM	–	–	–	–	–	–	–	inferior binding activity	CC(=O)N[C@@H](CCC(=O)O)CN(CC(=O)N[C@@H](CCCNC(=N)N)CN(CC(=O)N[C@@H](CCCNC(=N)N)CN(CC(=O)N[C@@H](CC(C)C)CN(CC(=O)N[C@H](CN(CC(=O)N[C@@H](CC(C)C)CN(CC(=O)N[C@@H](CCCNC(=N)N)CN(CC(=O)N[C@@H](CCCNC(=N)N)CN(CC(=O)N[C@@H](CC(C)C)CN(CC(=O)N[C@@H](CC(C)C)CN(CC(N)=O)S(=O)(=O)Cc1ccccc1)S(=O)(=O)CC(C)C)S(C)(=O)=O)S(=O)(=O)CC(C)C)S(=O)(=O)CCN)S(=O)(=O)CC(C)C)C(C)O)S(=O)(=O)CCN)S(C)(=O)=O)S(C)(=O)=O)S(=O)(=O)CCN (stereo partly shown) [Peptide 9]	–	–
2510 nM	4.07 ± 0.59 µM	3.65 ± 0.51 µM	–	–	–	–	–	–	–	decreased binding activity	CCC(C)[C@@H](CN(CC(=O)N[C@@H](CC(C)C)CN(CC(=O)N[C@@H](CC(C)C)CN(CC(N)=O)S(=O)(=O)Cc1ccccc1)S(=O)(=O)CC(C)C)S(=O)(=O)CC(C)C)NC(=O)CN(C[C@H](CCCNC(=N)N)NC(=O)CN(C[C@H](CC(C)C)NC(=O)CN(C[C@@H](NC(=O)CN(C[C@H](CC(C)C)NC(=O)CN(C[C@H](CCCNC(=N)N)NC(=O)CN(C[C@H](CCCNC(=N)N)NC(=O)CN(C[C@H](CCC(=O)O)NC(C)=O)S(=O)(=O)CCN)S(C)(=O)=O)S(C)(=O)=O)S(=O)(=O)CCN)C(C)O)S(=O)(=O)CC(C)C)S(=O)(=O)CCN)S(=O)(=O)CC(C)C (stereo partly shown) [Peptide 10]	–	–
8260 nM	17.4 ± 3.35 µM	15.7 ± 3 µM	–	–	–	–	–	–	–	inferior binding activity	CCC(C)[C@@H](CN(CC(=O)N[C@@H](C)CN(CC(=O)N[C@@H](CC(C)C)CN(CC(N)=O)S(=O)(=O)Cc1ccccc1)S(=O)(=O)CC(C)C)S(C)(=O)=O)NC(=O)CN(C[C@H](CCCNC(=N)N)NC(=O)CN(C[C@H](CC(C)C)NC(=O)CN(C[C@@H](NC(=O)CN(C[C@H](CC(C)C)NC(=O)CN(C[C@H](CCCNC(=N)N)NC(=O)CN(C[C@H](CCCNC(=N)N)NC(=O)CN(C[C@H](CCC(=O)O)NC(C)=O)S(=O)(=O)CCN)S(C)(=O)=O)S(C)(=O)=O)S(=O)(=O)CCN)C(C)O)S(=O)(=O)CC(C)C)S(=O)(=O)CCN)S(=O)(=O)CC(C)C (stereo partly shown) [Peptide 11]	–	–
> 10000 nM	> 10 µM	> 10 µM	–	–	–	–	–	–	–	–	CCC(C)[C@@H](CN(CC(=O)N[C@@H](CC(C)C)CN(CC(=O)N[C@@H](C)CN(CC(N)=O)S(=O)(=O)Cc1ccccc1)S(=O)(=O)CC(C)C)S(C)(=O)=O)NC(=O)CN(C[C@H](CCCNC(=N)N)NC(=O)CN(C[C@H](C)NC(=O)CN(C[C@@H](NC(=O)CN(C[C@H](CC(C)C)NC(=O)CN(C[C@H](CCCNC(=N)N)NC(=O)CN(C[C@H](C)NC(=O)CN(C[C@H](CCC(=O)O)NC(C)=O)S(C)(=O)=O)S(C)(=O)=O)S(C)(=O)=O)S(=O)(=O)CCN)C(C)O)S(=O)(=O)CC(C)C)S(=O)(=O)CCN)S(=O)(=O)CC(C)C (stereo partly shown) [Peptide 12]	–	completely losing their ability to inhibit β-catenin/BCL9 PPI
